Source: patent publication US20110053897A1 (IRM LLC, priority 2009, published 2011)
Where two headings read alike, the source gives them in different places.

Biological target: T1, Syk kinase (Homo sapiens, UniProt P43405)
T1 construct: purchased
Experiment: Syk kinase inhibition, Caliper LabChip off-chip mobility-shift kinase assay
Type: biochemical
Conditions: read-out: Syk Enzyme IC50
Description: Compounds of the examples and Table 1 provided herein were assayed to measure their capacity to inhibit Syk kinase.
Compounds of the examples and Table 1 provided herein were assessed for their ability to inhibit Syk kinase by utilizing Caliper Life Sciences' proprietary LabChip™ technology. The off-chip incubation mobility-shift kinase assay uses a microfluidic chip to measure the conversion of a fluorescent peptide substrate to a phosphorylated product. The reaction mixture, from a microtiter plate well, is introduced through a capillary sipper onto the chip, where the nonphosphorylated substrate and phosphorylated product are separated by electrophoresis and detected via laser induced fluorescence. […] The phosphorylated product migrates through the chip faster than the non-phosphorylated substrate, and signals from the two forms of the peptide appear as distinct peaks. Caliper's data analysis software (HTSWA) determines peak heights, from which the ratio of product to the peak sum P/(P+S) and percent (%) conversion is calculated. This value is used to compare compound wells to control wells present on the plate, and thereby determine the % inhibition values for the compound. The formula used to calculate % inhibition is as follows, where C100% is the average % conversion of the 100% activity wells and Co% is the average % conversion of the 0% activity wells: (1−(% conversionofsample−C0%)/(C100%−C0%))*100.
Compounds (10 mM stocks in 100% DMSO) are diluted to a final concentration of 5 μM for single point inhibition experiments, and a series dilution of 10, 3, 1, 0.3, 0.1, 0.03, 0.01, 0.003, 0.001, 0.0003, 0.0001, and 0.00003 μM were made for IC50 determination. Generally, 12 μL of enzyme buffer containing purified kinase (various amount; various suppliers), 100 mM HEPES, pH 7.5, 1 mM DTT (Calbiochem, 2333153), 10 mM MgCl2 (Sigma, M-1028) or 10 mM MnCl2 (Sigma, M-1787) (assay specific), and 0.002% Brij-35 (Sigma, B4184) are added to each well. Compound and enzyme are allowed to pre-incubate for 15 minutes. 12 μL of peptide/ATP buffer containing 100 mM HEPES, pH 7.5, 1.5 μM fluorescein-labeled peptide (specific to kinase of interest), ATP (at KM apparent, Sigma, A9187), and 0.002% Brij-35 is then added to each well to initiate the reaction. The final concentration of DMSO in the well is 4%. Generally, reactions are incubated for 1 to 1.5 hours at room temperature to obtain adequate conversion of peptide to phosphorylated product in the linear range of the reaction. Reactions are terminated with the addition of 45 μL of Stop Buffer (containing 20 mM EDTA). Plates are then read on the LabChip 3000 using a 12-sipper LabChip. % conversion values and % inhibition values are obtained as provided and IC50 curves of compounds are generated using GraphPad Prism Version 4 or 5.01, or XLfit Version 4.3.2. When using GraphPad Prism, a nonlinear curve fit using the sigmoidal dose response—variable slope fit was used to graph IC50 curves and determine IC50 values and hillslopes. When using XLfit, Fit Model 205 (4-Parameter Logistic Model) is used to generate and fit the IC50 curve.

| Structure (SMILES) | IC50 [µM] | IC50 (Caliper LabChip assay) [µM] |
| --- | --- | --- |
| CCn1ccc2cc(Nc3cc(Cl)ccn3)nc(NCC(F)(F)F)c2c1=O [compound 592] | 0.962 |  |
| CCn1ccc2cc(Nc3cc(C)ccn3)nc(N[C@H]3CCOC3)c2c1=O [compound 361] | 0.03 |  |
| Cc1ccnc(Nc2cc3ccn(C)c(=O)c3c(NC3CCC3)n2)c1 [compound 489] | 0.124 |  |
| CC(C)(C)N1CC=C(c2ccc(Nc3nc(-c4cncnc4)cc4cc[nH]c(=O)c34)cc2)CC1 [compound 94] | 0.013 |  |
| CC(C)(C)Nc1nc(Nc2cc(C(N)=O)ccn2)cc2ccn(CCO)c(=O)c12 [compound 681] |  | 0.082 |
| CC(C)CNc1nc(Nc2ccccn2)cc2cc[nH]c(=O)c12 [compound 288] | 0.694 |  |
| CC(C)n1ccc2cc(Nc3cnccn3)nc(NC(C)(C)C)c2c1=O [compound 822] |  | 0.165 |
| COCCC(=O)N1CCC(c2ccc(Nc3nc(-c4cncc(OC)n4)cc4cc[nH]c(=O)c34)cc2)CC1 [compound 26] | 0.072 |  |
| O=c1[nH]ccc2cc(C3=CCNCC3)nc(Nc3ccc(N4CCOCC4)cc3)c12 [compound 88] | 0.051 |  |
| CC(O)c1ccnc(Nc2cc3ccn(CCO)c(=O)c3c(NC(C)(C)C)n2)n1 (stereo not drawn) [compound 715] |  | 0.679 |
| CCn1ccc2cc(Nc3cc(C)ccn3)nc(NCCC(F)(F)F)c2c1=O [compound 780] |  | 0.862 |
| Cc1cc(Nc2nc(-c3cnc(N)c(C)c3)cc3cc[nH]c(=O)c23)ccc1C1CCN(CCC#N)CC1 [compound 69] | 0.028 |  |
| Cn1ccc2cc(Nc3cc(Cl)ccn3)nc(N[C@H]3CC[C@@H](O)CC3)c2c1=O [compound 379] | 0.036 |  |
| COc1cncc(-c2cc3cc[nH]c(=O)c3c(Nc3ccc(C4CCN(C(=O)C5CCOC5)CC4)c(C)c3)n2)n1 (stereo not drawn) [compound 89] | 0.055 |  |
| CC(C)(C)Nc1nc(-c2cnc(N)nc2)cc2ccn(C3COC3)c(=O)c12 [compound 921] |  | 0.021 |
| N#Cc1ccc(Nc2cc3cc[nH]c(=O)c3c(Nc3ccc(N4CCOCC4)cc3)n2)nc1 [compound 515] | 0.301 |  |
| [2H]C([2H])([2H])n1ccc2cc(Nc3cnccn3)nc(NC3CC3)c2c1=O [compound 467] | 0.049 |  |
| CCN1CCN(c2n[nH]c3cc(Nc4nc(-c5cncc(OC)n5)cc5cc[nH]c(=O)c45)ccc23)CC1 [compound 209] | 0.011 |  |
| CCCn1ccc2cc(-c3cnc(N)nc3)nc(NC(C)(C)C)c2c1=O [compound 914] |  | 0.108 |
| Cc1ccc(-c2cc3cc[nH]c(=O)c3c(Nc3ccc(CCN4CCCN(C)CC4)cc3)n2)cn1 [compound 437] | 0.102 |  |

| Structure (SMILES) | IC50 [µM] | IC50 (Caliper LabChip assay) [µM] |
| --- | --- | --- |
| [2H]C([2H])([2H])n1ccc2cc(Nc3cc(C)ccn3)nc(N[C@H]3CC[C@H](O)CC3)c2c1=O [compound 983] |  | 0.051 |
| CC(C)n1ccc2cc(Nc3c[n+]([O-])ccn3)nc(N[C@H]3CC[C@@H](CO)C3)c2c1=O [compound 1018] |  | 0.013 |
| CCOCCOc1cccc(Nc2nc(Nc3cnccn3)cc3ccn(C)c(=O)c23)c1 [compound 337] | 2.13 |  |
| CC[C@H](CO)Nc1nc(Nc2cnccn2)cc2ccn(CC)c(=O)c12 [compound 457] | 0.302 |  |
| CCN1CCC[C@@H]1CNc1nc(Nc2cc(C)ccn2)cc2cc[nH]c(=O)c12 [compound 589] | 5.56 |  |
| COCCCc1cc2cc[nH]c(=O)c2c(Nc2ccc(C3CCN(C4CC4)CC3)c(C)c2)n1 [compound 238] | 1.29 |  |
| CC(C)Nc1nc(Nc2cc(C(N)=O)ccn2)cc2cc[nH]c(=O)c12 [compound 514] | 0.051 |  |
| COc1cncc(-c2cc3cc[nH]c(=O)c3c(Nc3ccc(C4CCN(CC#N)CC4)c(C)c3)n2)n1 [compound 133] | 0.13 |  |
| Cc1ccnc(Nc2cc3ccn(C)c(=O)c3c(NC(C)(C)C)n2)c1 [compound 506] | 0.129 |  |
| Cn1ccc2cc(Nc3cnccn3)nc(N)c2c1=O [compound 479] | 0.599 |  |
| COc1cncc(-c2cc3cc[nH]c(=O)c3c(Nc3ccc(CCN4CCNC5(CCCC5)C4)cc3)n2)n1 [compound 22] | 0.078 |  |
| CCN1CCN(CCc2ccc(Nc3nc(Nc4ccc(C)cn4)cc4cc[nH]c(=O)c34)cc2)CC1 [compound 563] | 0.43 |  |
| CCn1ccc2cc(Nc3cc(Cl)ccn3)nc(N[C@H]3CC[C@@H](O)CC3)c2c1=O [compound 383] | 0.026 |  |
| CC(C)(C)Nc1nc(Nc2cc(CO)ncn2)cc2ccn(CCO)c(=O)c12 [Compound No. 607, 8-(tert-butylamino)-2-(2-hydroxyethyl)-6-(6-(hydroxymethyl)pyrimidin-4-ylamino)-2,7-naphthyridin-1(2H)-one] |  | 0.029 |
| Cc1cc(Nc2nc(Nc3cc(Cl)ccn3)cc3cc[nH]c(=O)c23)ccc1C1CCN(C2CC2)CC1 [compound 257] | 0.17 |  |
| CCn1ccc2cc(Nc3cc(C)ccn3)nc(NC[C@@H]3CC[C@](C)(O)C3)c2c1=O [compound 414] | 0.287 |  |
| CC[C@@H](CO)Nc1nc(Nc2cnccn2)cc2ccn(CC)c(=O)c12 [compound 1042] |  | 0.111 |
| COc1cncc(-c2cc3cc[nH]c(=O)c3c(Nc3ccc(C4CCN(C(C)C(=O)N(C)C)CC4)c(C)c3)n2)n1 (stereo not drawn) [compound 170] | 0.006 |  |
| Cc1cc(Nc2nc(Nc3ccc(C(N)=O)cn3)cc3cc[nH]c(=O)c23)ccc1N1CCO[C@H](C)C1 [compound 538] | 0.361 |  |
| CC(C)Nc1nc(Nc2cc(-c3cnn(C)c3)ccn2)cc2cc[nH]c(=O)c12 [compound 595] | 0.0879 |  |

| Structure (SMILES) | IC50 [µM] | IC50 (Caliper LabChip assay) [µM] |
| --- | --- | --- |
| CCn1ccc2cc(Nc3cnccn3)nc(N[C@H]3CCCC[C@@H]3O)c2c1=O (racemic) [compound 407] | 0.301 |  |
| CCn1ccc2cc(Nc3cc(C)ccn3)nc(NC[C@H]3CC[C@@](C)(O)C3)c2c1=O [compound 416] | 0.176 |  |
| COc1cncc(-c2cc3cc[nH]c(=O)c3c(Nc3ccc4c(c3)C3CNCC4C3)n2)n1 (stereo not drawn) [compound 96] | 1.66 |  |
| CCn1ccc2cc(Nc3cc(C(C)(C)O)ccn3)nc(NC(C)(C)CO)c2c1=O [compound 701] |  | 0.069 |
| CC(C)(C)Nc1nc(Nc2cnccn2)cc2ccn(C[C@@H](O)c3ccccc3)c(=O)c12 [compound 676] |  | 0.12 |
| CCn1ccc2cc(Nc3nccc(O)n3)nc(N)c2c1=O [compound 803] |  | 0.307 |
| Cc1cc(-c2cc3cc[nH]c(=O)c3c(Nc3ccc(C4CCN(C5CC5)CC4)c(C)c3)n2)ccn1 [compound 212] | 0.39 |  |
| O=c1c2c(N[C@H]3CC[C@@H](O)CC3)nc(Nc3cnccn3)cc2ccn1Cc1ccncc1 [compound 1024] |  | 0.174 |
| CC(C)(C)Nc1nc(Nc2cnccn2)cc2ccn(CC(N)=O)c(=O)c12 [compound 662] |  | 0.017 |
| Nc1ncc(-c2cc3ccn(CCO)c(=O)c3c(NC3(CO)CCC3)n2)cn1 [compound 903] |  | 0.026 |
| CC(C)(C)Nc1nc(Nc2cc(C(O)C(F)(F)F)ccn2)cc2ccn(CCO)c(=O)c12 (stereo not drawn) [Compound No. 602, 8-(tert-butylamino)-2-(2-hydroxyethyl)-6-(4-(2,2,2-trifluoro-1-hydroxyethyl)pyridin-2-ylamino)-2,7-naphthyridin-1(2H)-one] |  | 0.065 |
| CC(C)(C)Nc1nc(Nc2cc(C(F)CO)ccn2)cc2ccn(CCO)c(=O)c12 (stereo not drawn) [compound 872] |  | < 0.00117 |
| Cn1ccc2cc(Nc3cc(Cl)ccn3)nc(N[C@H]3CC[C@H](O)CC3)c2c1=O [compound 385] | 0.028 |  |
| Cc1ccnc(Nc2cc3cc[nH]c(=O)c3c(NC3CCCC3)n2)c1 [compound 292] | 0.176 |  |
| COc1cncc(-c2cc3cc[nH]c(=O)c3c(Nc3ccc(C4CCN(CC(=O)N(C)C)CC4)c(C)c3)n2)n1 [compound 167] | 0.091 |  |
| CN(C)Cc1n[nH]c2cc(Nc3nc(-c4cncc(C(=O)N5CCOCC5)c4)cc4cc[nH]c(=O)c34)ccc12 [compound 205] | 0.104 |  |
| COc1cncc(-c2cc3cc[nH]c(=O)c3c(Nc3ccc(C4CCN(C(=O)N5CCNC5=O)CC4)c(C)c3)n2)n1 [compound 114] | 0.174 |  |
| CC1(Nc2nc(Nc3cc(C4(O)COC4)ccn3)cc3ccn(CC(N)=O)c(=O)c23)CC1 [compound 617] |  | 0.064 |
| Cc1ccc(Nc2cc3cc[nH]c(=O)c3c(Nc3ccc(C4CCN(C5CC5)CC4)c(C)c3)n2)nc1 [compound 249] | 1.59 |  |
| CC(C)n1ccc2cc(Nc3c[n+]([O-])ccn3)nc(N[C@H]3CC[C@@H](O)CC3)c2c1=O [compound 1016] |  | 0.105 |
